Values quoted from earlier work, collected in patent US10238670B2, “9-aminomethyl minocycline compounds and methods of use thereof in urinary tract infection (UTI) treatment” (Paratek Pharmaceuticals, Inc., priority 2016, dated 2019).
Read-outs that look alike come from different tables or passages of the source.

Experiments:
human plasma protein = conditions: cited from earlier work
[1] = IV; cIAI; cited from earlier work
[2] = IV to oral transition therapy; cUTI; cited from earlier work

| SMILES | protein bound in human plasma (human plasma protein) | primary endpoint [1] | human plasma protein binding (human plasma protein; Concentration 100 ng/mL, literature) | human plasma protein binding (human plasma protein; Concentration 1,000 ng/mL, literature) | human plasma protein binding (human plasma protein; Concentration 10,000 ng/mL, literature) | human plasma protein binding (human plasma protein; Concentration 100,000 ng/mL, literature) | type of plasma protein binding (human plasma protein; binding increases with increasing drug concentrations) | human plasma protein binding, Mean (human plasma protein; literature) | primary endpoint, non-inferiority compared to levofloxacin [2] |
| --- | --- | --- | --- | --- | --- | --- | --- | --- | --- |
| Nc1nc(-n2cc(C(=O)O)c(=O)c3cc(F)c(N4CC(O)C4)c(Cl)c32)c(F)cc1F [delafloxacin] | > 75% | – | – | – | – | – | – | – | – |
| CN(C)[C@@H]1C(O)=C(C(N)=O)C(=O)[C@@]2(O)C(O)=C3C(=O)c4c(O)c(NC(=O)CN5CCCC5)cc(F)c4C[C@H]3C[C@@H]12 [eravacycline] | – | did meet its primary endpoint | 79.3% | 87.0% | 89.3% | 97.0% | atypical, non-linear protein binding | 79-97% | failed to achieve its primary endpoint of statistical non-inferiority |
| Cn1nnc(-c2ccc(-c3ccc(N4C[C@H](CO)OC4=O)cc3F)cn2)n1 [tedizolid] | > 75% | – | – | – | – | – | – | – | – |
